{"source": "patent US20040235785A1", "about": "“Potentiator of antitumoral agents in the treatment of cancer” (priority 2001, published 2004)", "key": {"[1]": {"test_system": "MCF-7 human breast adenocarcinoma cell line", "test": "Maximal tolerated dose in vitro (resazurin reduction test), MCF-7", "assay_type": "cell-based", "settings": "MCF-7, 48 h", "excerpt": "(§1) The human cell lines breast cancer adenocarcinoma MCF-7, prostatic adenocarcinoma PC-3, lung carcinoma A-549 and colon adenocarcinoma DLD-1 together with the mouse cell line L-929 (fibrobast) were obtained from the European Collection of Cell Cultures (ECACC, Salisbury, United Kingdom). Normal human fibroblasts were purchased from Biopredic International (Rennes, France). The M4BEU human melanoma cell line was generously supplied by Dr. J F Doré (Institut National de la Santé et de la Recherche Médicale-INSERM, Unit 218, Lyon, France). All the cell lines were grown in minimum essential medium with Earle's salts (Gibco-BRL, Paisley, Scotland) supplemented with 10% fetal calf serum (Sigma-Aldrich), 1×solution of vitamins (Gibco-BRL), 1 mM sodium pyruvate (Gibco-BRL), 1×non-essential amino acids (Gibco-BRL) and 2 mg of gentamicin base (Gibco-BRL). Cells were cultured in a humidified atmosphere at 37° C. in 5% CO2."}, "[2]": {"test_system": "PC-3 human prostatic adenocarcinoma cell line", "test": "Maximal tolerated dose in vitro (resazurin reduction test), PC-3", "assay_type": "cell-based", "settings": "PC-3, 48 h", "excerpt": "as §1"}, "[3]": {"test_system": "A-549 human lung carcinoma cell line", "test": "Maximal tolerated dose in vitro (resazurin reduction test), A-549", "assay_type": "cell-based", "settings": "A-549, 48 h", "excerpt": "as §1"}, "[4]": {"test_system": "DLD-1 human colon adenocarcinoma cell line", "test": "Maximal tolerated dose in vitro (resazurin reduction test), DLD-1", "assay_type": "cell-based", "settings": "DLD-1, 48 h", "excerpt": "as §1"}, "[5]": {"test_system": "M4BEU human melanoma cell line", "test": "Maximal tolerated dose in vitro (resazurin reduction test), M4BEU", "assay_type": "cell-based", "settings": "48 h", "excerpt": "as §1"}, "normal human fibroblasts": {"test_system": "normal human fibroblasts", "test": "Maximal tolerated dose in vitro (resazurin reduction test), human fibroblast", "assay_type": "cell-based", "settings": "48 h", "excerpt": "as §1"}, "[6]": {"test_system": "L-929 mouse subcutaneous connective tissue cell line", "test": "Maximal tolerated dose in vitro (resazurin reduction test), L-929", "assay_type": "cell-based", "settings": "L-929, 48 h", "excerpt": "as §1"}, "[7]": {"test_system": "normal and cancerous cell lines", "test": "In vitro toxicity / MTD, stated overall for the cell lines tested", "assay_type": "cell-based", "procedure": "The screening of terpene potentiators in accordance with the present invention is carried out by the evaluation of several parameters including: i) the cytotoxicity (maximal tolerated dose); and iii) the effect on the intracellular glutathione content; and iv) the synergism in combination with antitumor agents. Briefly, the cytotoxicity or the cell growth inhibition induced by the terpenes is evaluated on various cell lines in order to determine the maximal tolerated dose (MTD) or non-toxic dose. […] The cell growth is measured by the fluorescence induced by the metabolic transformation of resazurin™ in resorufin™, which is proportional to living cells (see materials and methods). […] Moreover, β-caryophyllene is not toxic in mice at >500 mg/kg. It is shown herein that β-caryophyllene is having a synergistic action on the treatment of cancer when used in combination with antitumoral agents such as paclitaxel. To assess the synergistic effect of terpenes such as β-caryophyllene, the cancer cells are treated with growing concentrations of antitumoral agents (paclitaxel) with or without terpene (β-caryophyllene).\nThe in vitro toxicity of β-caryophyllene has been evaluated from 5 cell lines: human adenocarcinoma, MCF-7; human prostatic adenocarcinoma, PC-3; human lung carcinoma, A-549 and human colon adenocarcinoma, DLD-1 and from human and mouse fibroblasts.\nCell survival has been evaluated after receiving an increasing dose of β-caryophyllene between 6.25 and 800 µM. It is shown in table I that β-caryophyllene is not toxic in vitro in a dose less than […]."}, "MCF-7 cells": {"test_system": "MCF-7 cells", "test": "Synergistic effect in combination with paclitaxel, MCF-7", "assay_type": "cell-based, human", "settings": "MCF-7, β-caryophyllene combined with paclitaxel", "protocol": "The resazurin reduction test (RRT) was carried out according to the protocol as described by O'Brien et al. Briefly, plates were rinsed by 200 μl PBS (37° C., Gibco) at 37° C. using an automatic microplate washer (Cell Wash™, Labsystems, Helsinki, Finland) and emptied by overturning on absorbent toweling. Then, 150 μl of a 25μg/ml solution of resazurin in MEM without Phenol red was added in each well using an automatic microvolume dispenser (Multidrop 384™ Labsystems). The plates were incubated 1 h at 37° C. in a humidified atmosphere with 5% of CO2 for fluorescence development by living cells. Fluorescence was then measured on the automated 96-well plate reader Fluoroskan Ascent FL™ (Labsystems) using an excitation wavelength of 530 nm and an emission one of 590 nm. The fluorescence is proportional to the number of living cells in the well.\nBriefly, the cells were plated at a density of 5×10^3 cells per well in 96-well microplates (Nunclon™, Nunc) in 100 μl of culture medium and were allowed to adhere for 16 h before treatment. […] The proliferation of tumour cells was assessed using resazurin reduction test as described above. The synergistic effect of β-caryophyllene was determined by the comparison between the percentage of cells growth inhibition induced by the paclitaxel used alone and the one induced by the combination of paclitaxel and β-caryophyllene."}, "[8]": {"settings": "studies performed by the National Cancer Institute; cited from earlier work"}}}
{"smiles": "C=C1CC/C=C(\\C)CC[C@@H]2[C@@H]1CC2(C)C", "note": "[β-caryophyllene]", "values": [{"measurement": "MTD (maximal tolerated dose or maximal no toxic dose)", "setting": "[1]", "result": ">800", "unit": "µM"}, {"measurement": "MTD (maximal tolerated dose or maximal no toxic dose)", "setting": "[2]", "result": ">800", "unit": "µM"}, {"measurement": "MTD (maximal tolerated dose or maximal no toxic dose)", "setting": "[3]", "result": ">800", "unit": "µM"}, {"measurement": "MTD (maximal tolerated dose or maximal no toxic dose)", "setting": "[4]", "result": ">800", "unit": "µM"}, {"measurement": "MTD (maximal tolerated dose or maximal no toxic dose)", "setting": "[5]", "result": ">800", "unit": "µM"}, {"measurement": "MTD (maximal tolerated dose or maximal no toxic dose)", "setting": "normal human fibroblasts", "result": ">800", "unit": "µM"}, {"measurement": "MTD (maximal tolerated dose or maximal no toxic dose)", "setting": "[6]", "result": ">800", "unit": "µM"}, {"measurement": "cytotoxicity against normal and cancerous cell lines tested in vitro", "setting": "[7]", "result": "does not induce cytotoxicity"}, {"measurement": "in vitro toxicity (cell survival)", "setting": "[7]; dose less than 800, doses tested between 6.25 and 800", "result": "not toxic"}, {"measurement": "MTD (higher concentration that does not induce cell growth inhibition)", "setting": "[7]; various cell lines, stated overall", "result": "greater than 800 μM"}, {"measurement": "increase of cell growth inhibition induced by paclitaxel", "setting": "MCF-7 cells", "result": "about 40%"}, {"measurement": "mutagenicity", "setting": "[8]", "result": "not mutagenic"}]}
